Results taken from patent US10909691B2, “Automatically classifying animal behavior” (PRESIDENT AND FELLOWS OF HARVARD COLLEGE, priority 2016, dated 2021).

Test system: mice
Assay: Innate behavioral response to odorant in square odor box (3D depth imaging, AR-HMM analysis)
Type: in vivo, mouse

## CC1=NC(C)SC1C (stereo not drawn) [TMT]
TMT delivered to one quadrant of the square box via olfactometer
  observed behavior of mice on odor exposure: avoided the quadrant containing the predator cue and displayed prolonged periods of immobility traditionally described as freezing behavior
After TMT exposure
  per frame entropy rate with self-transitions: 0.64±0.02 bits
  per frame entropy rate without self-transitions: 3.66±0.08 bits
After TMT exposure, in 300 minutes of imaging
  number of times the most commonly-expressed freezing trigram was expressed: 716 times
n=15 in TMT, n=25 control, model co-trained on both datasets
  change in behavioral modules relative to control: several modules were up-or down-regulated after TMT exposure, but no new modules were introduced or eliminated relative to control
Under the influence of TMT, 5% concentration, delivered to one quadrant of the box
  average during-sequence velocity of freezing module sequences: −0.14±0.54 mm/sec
